Broadly, the pIC50 is −log10 of the IC50, conventionally taken in molar units.

Here are results for 28 molecules from patent US20260028365A1 (BIOGEN MA INC., priority 2022, published 2026).

SMILES strings stand for the structures. pIC50: −log10 of the molar value. Where a name gives a salt, the structure may show the parent alone. Read-outs that look alike come from different tables or passages of the source.

In one assay the target is JH2 domain of human Tyk2 (Homo sapiens (Human), UniProt P29597). Nature of the assay: JH2 Biochemical Assay (TR-FRET probe displacement). In kind it is binding. (Time-resolved FRET reads energy transfer from a long-lived donor to a nearby acceptor.)
In another assay the target is Tyk2 (Homo sapiens (Human), UniProt P29597). Nature of the assay: pSTAT4 Cell Assay (MSD, NK92 cells). The assay is classed as cell-based.
The mark [1] stands for this setting: TR-FRET probe displacement, JH2 domain of human Tyk2.
Where [2] appears, read: JH2 domain of human Tyk2, TR-FRET probe displacement.
[3] abbreviates: TR-FRET probe displacement, JH2 domain.

Tyk2, sequence (P29597 whole entry, the tested form may be a part): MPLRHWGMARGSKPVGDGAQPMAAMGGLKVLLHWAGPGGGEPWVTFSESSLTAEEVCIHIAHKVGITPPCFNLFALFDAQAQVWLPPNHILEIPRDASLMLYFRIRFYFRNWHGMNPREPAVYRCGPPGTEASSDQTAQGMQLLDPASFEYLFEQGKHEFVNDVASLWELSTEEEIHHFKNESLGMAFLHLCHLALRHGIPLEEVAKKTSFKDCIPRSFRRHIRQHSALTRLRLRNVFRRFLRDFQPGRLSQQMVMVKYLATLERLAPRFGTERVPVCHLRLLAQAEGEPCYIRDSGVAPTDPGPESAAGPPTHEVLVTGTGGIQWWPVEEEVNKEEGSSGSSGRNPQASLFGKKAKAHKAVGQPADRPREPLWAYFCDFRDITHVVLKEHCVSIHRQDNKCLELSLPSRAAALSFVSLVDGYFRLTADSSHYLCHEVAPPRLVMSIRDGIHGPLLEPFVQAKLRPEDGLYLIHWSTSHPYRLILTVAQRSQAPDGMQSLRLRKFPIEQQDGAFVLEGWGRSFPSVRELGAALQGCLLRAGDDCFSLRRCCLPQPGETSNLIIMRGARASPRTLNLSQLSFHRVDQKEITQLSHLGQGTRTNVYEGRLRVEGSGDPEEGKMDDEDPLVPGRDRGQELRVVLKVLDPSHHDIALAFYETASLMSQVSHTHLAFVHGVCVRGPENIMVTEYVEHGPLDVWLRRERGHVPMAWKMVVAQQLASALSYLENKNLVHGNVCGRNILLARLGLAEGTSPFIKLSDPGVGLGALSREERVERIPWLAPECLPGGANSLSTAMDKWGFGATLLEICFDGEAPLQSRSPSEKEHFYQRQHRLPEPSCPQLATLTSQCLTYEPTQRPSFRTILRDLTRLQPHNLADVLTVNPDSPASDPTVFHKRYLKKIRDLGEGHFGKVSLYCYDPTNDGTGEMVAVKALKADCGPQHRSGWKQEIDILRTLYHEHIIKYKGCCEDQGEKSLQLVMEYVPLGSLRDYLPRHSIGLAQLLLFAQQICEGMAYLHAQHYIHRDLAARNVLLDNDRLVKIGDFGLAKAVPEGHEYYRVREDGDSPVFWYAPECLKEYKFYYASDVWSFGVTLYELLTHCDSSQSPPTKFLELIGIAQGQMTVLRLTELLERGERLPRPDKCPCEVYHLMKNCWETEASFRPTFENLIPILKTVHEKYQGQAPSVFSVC
JH2 domain of human Tyk2, sequence (P29597 575-876): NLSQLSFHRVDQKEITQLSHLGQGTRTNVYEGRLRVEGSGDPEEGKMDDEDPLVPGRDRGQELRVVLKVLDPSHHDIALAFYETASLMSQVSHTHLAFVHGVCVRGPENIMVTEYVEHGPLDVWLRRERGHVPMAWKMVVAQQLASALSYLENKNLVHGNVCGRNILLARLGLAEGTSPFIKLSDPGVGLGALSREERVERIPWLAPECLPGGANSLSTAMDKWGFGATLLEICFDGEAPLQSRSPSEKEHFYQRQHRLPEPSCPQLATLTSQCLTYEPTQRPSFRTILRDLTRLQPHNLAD

`CCOc1cnc(NC(C)=O)cc1Nc1cc(F)nc(C(C)(F)F)n1` [Example 94, N-(4-((2-(1,1-difluoroethyl)-6-fluoropyrimidin-4-yl)amino)-5-ethoxypyridin-2-yl)acetamide trifluoroacetate]: the pIC50 on JH2 domain of human Tyk2 (setting [1]) is not below 8.00; against Tyk2 (MSD), 7.00 to 8.00.

Take `CC(=O)Nc1cc(Nc2ccnc(C(C)(F)F)n2)c(-c2cnn(C3CCC3)c2)cn1` [Example 579, N-(5-(1-cyclobutyl-1H-pyrazol-4-yl)-4-((2-(1,1-difluoroethyl)pyrimidin-4-yl)amino)pyridin-2-yl)acetamide]: the pIC50 at JH2 domain of human Tyk2 (setting [2]) is 6.00 to 7.00; on Tyk2 (MSD), not above 6.00.

For the molecule `CC(=O)Nc1cc(Nc2cccc(C3CCOC3)n2)c(-c2ccn(C)n2)cn1` (centres unmarked) [Example 208, N-(5-(1-methyl-1H-pyrazol-3-yl)-4-((6-(tetrahydrofuran-3-yl)pyridin-2-yl)amino)pyridin-2-yl)acetamide], the values for the pIC50 at JH2 domain of human Tyk2 (setting [1]) and against Tyk2 (MSD) were not below 8.00 and 7.00 to 8.00, respectively.

As to `COCCOc1cnc(NC(C)=O)cc1Nc1cc(-c2cnn(C(C)C)c2)nc(C(C)(F)F)n1` [Example 366, N-(4-((2-(1,1-difluoroethyl)-6-(1-isopropyl-1H-pyrazol-4-yl)pyrimidin-4-yl)amino)-5-(2-methoxyethoxy)pyridin-2-yl)acetamide], the pIC50 on JH2 domain of human Tyk2 (setting [1]) and on Tyk2 (MSD) was not below 8.00 in each case.

`CC(=O)Nc1cc(Nc2cc(OC3CC3)nc(C(C)(F)F)n2)c(O[C@H]2C[C@H](F)C2)cn1` [Example 352, N-(4-((6-cyclopropoxy-2-(1,1-difluoroethyl)pyrimidin-4-yl)amino)-5-((1r,3r)-3-fluorocyclobutoxy)pyridin-2-yl)acetamide]: the pIC50 on JH2 domain of human Tyk2 (setting [1]) was not below 8.00; against Tyk2 (MSD), 7.00 to 8.00.

In the case of `CC(=O)Nc1cc(Nc2cc(C)nc(C(C)(F)F)n2)c(OC[C@]23CC[C@@H](CC2)O3)cn1` [Example 423, N-(5-(((1r,4r)-7-oxabicyclo[2.2.1]heptan-1-yl)methoxy)-4-((2-(1,1-difluoroethyl)-6-methylpyrimidin-4-yl)amino)pyridin-2-yl)acetamide], the negative-log IC50 (pIC50) is not below 8.00 at JH2 domain of human Tyk2 (setting [2]) and 7.00 to 8.00 at Tyk2 (MSD).

As to `CC(=O)Nc1cc(Nc2cccc(C(C)(F)F)n2)c(OCCO)cn1` [Example 140, N-(4-((6-(1,1-difluoroethyl)pyridin-2-yl)amino)-5-(2-hydroxyethoxy)pyridin-2-yl)acetamide], the pIC50 on JH2 domain of human Tyk2 (setting [1]) and against Tyk2 (MSD) was not below 8.00 each time.

Consider `CC(=O)Nc1cc(Nc2cc(OC3CC3)nc(C(C)(F)F)n2)c(OCc2ccc(F)c(F)c2)cn1` [Example 349, N-(4-((6-cyclopropoxy-2-(1,1-difluoroethyl)pyrimidin-4-yl)amino)-5-((3,4-difluorobenzyl)oxy)pyridin-2-yl)acetamide], for which the pIC50 on JH2 domain of human Tyk2 (setting [1]) and against Tyk2 (MSD) was not below 8.00 each time.

In the case of `CC(=O)Nc1cc(Nc2cc(OC3CC3)nc(C(C)(F)F)n2)c(F)cn1` [Example 818, N-(4-((6-cyclopropoxy-2-(1,1-difluoroethyl)pyrimidin-4-yl)amino)-5-fluoropyridin-2-yl)acetamide], the pIC50 at JH2 domain of human Tyk2 (setting [3]) is not below 8.00; against Tyk2, 6.00 to 7.00.

With `CC(=O)Nc1cc(Nc2ccnc(C(C)(F)F)n2)c(-c2cnc(N3CCCC3)cn2)cn1` [Example 843, N-(4-((2-(1,1-difluoroethyl)pyrimidin-4-yl)amino)-5-(5-(pyrrolidin-1-yl)pyrazin-2-yl)pyridin-2-yl)acetamide], the negative logarithm of the IC50 (pIC50) on JH2 domain of human Tyk2 (setting [3]) is not below 8.00; against Tyk2 it was 7.00 to 8.00.

For `CC(=O)Nc1cc(Nc2ccnc(C(C)(F)F)n2)c(-c2cc3n(n2)CCOC3)cn1` [Example 529, N-(4-((2-(1,1-difluoroethyl)pyrimidin-4-yl)amino)-5-(6,7-dihydrO4H-pyrazolo[5,1-c][1,4]oxazin-2-yl)pyridin-2-yl)acetamide], the pIC50 at JH2 domain of human Tyk2 (setting [2]) and at Tyk2 (MSD) was not below 8.00 in each case.

As for `COC1CCN(c2ccc(-c3cnc(NC(C)=O)cc3Nc3ccnc(C(C)(F)F)n3)nn2)C1` (racemic) [Example 873, rac-(R)-N-(4-((2-(1,1-difluoroethyl)pyrimidin-4-yl)amino)-5-(6-(3-methoxypyrrolidin-1-yl)pyridazin-3-yl)pyridin-2-yl)acetamide], the pIC50 on JH2 domain of human Tyk2 (setting [3]) and against Tyk2 was not below 8.00 throughout.

For the molecule `CC(=O)Nc1cc(Nc2cc(C)nc(C34CC(CO3)C4)n2)c(-c2ccn(C)n2)cn1` [Example 562, N-(4-((2-(2-oxabicyclo[2.1.1]hexan-1-yl)-6-methylpyrimidin-4-yl)amino)-5-(1-methyl-1H-pyrazol-3-yl)pyridin-2-yl)acetamide], the pIC50 on JH2 domain of human Tyk2 (setting [2]) was not below 8.00; on Tyk2 (MSD) it was 7.00 to 8.00.

Take `COC1(C)CN(c2ccc(-c3cnc(NC(C)=O)cc3Nc3ccnc(C(C)(F)F)n3)nn2)C1` [Example 874, N-(4-((2-(1,1-difluoroethyl)pyrimidin-4-yl)amino)-5-(6-(3-methoxy-3-methylazetidin-1-yl)pyridazin-3-yl)pyridin-2-yl)acetamide]: the pIC50 on JH2 domain of human Tyk2 (setting [3]) and against Tyk2 was not below 8.00 each time.

Take `COc1ccc(-c2cnc(NC(C)=O)cc2Nc2cc(C)nc(C34COC(C3)C4)n2)nn1` [Example 749, N-(4-((2-(2-oxabicyclo[2.1.1]hexan-4-yl)-6-methylpyrimidin-4-yl)amino)-5-(6-methoxypyridazin-3-yl)pyridin-2-yl)acetamide]: the pIC50 at JH2 domain of human Tyk2 (setting [3]) is not below 8.00; against Tyk2, 7.00 to 8.00.

With `CC(=O)Nc1cc(Nc2cc(C)nc(C(C)(F)F)n2)c(-n2cc(C#N)cn2)cn1` [Example 733, N-(5-(4-cyanO1H-pyrazol-1-yl)-4-((2-(1,1-difluoroethyl)-6-methylpyrimidin-4-yl)amino)pyridin-2-yl)acetamide], the pIC50 on JH2 domain of human Tyk2 (setting [2]) is not below 8.00; against Tyk2 (MSD), 6.00 to 7.00.

With `COCCOc1nccc(Nc2cc(NC(C)=O)ncc2-c2ccn(C)n2)n1` [Example 549, N-(4-((2-(2-methoxyethoxy)pyrimidin-4-yl)amino)-5-(1-methyl-1H-pyrazol-3-yl)pyridin-2-yl)acetamide], the pIC50 on JH2 domain of human Tyk2 (setting [2]) was not below 8.00; on Tyk2 (MSD) it was 6.00 to 7.00.

With `CC(=O)Nc1cc(Nc2cc(C)nc(C(C)(F)F)n2)c(-c2cn(C)c(C#N)n2)cn1` [Example 601, N-(5-(2-cyanO1-methyl-1H-imidazol-4-yl)-4-((2-(1,1-difluoroethyl)-6-methylpyrimidin-4-yl)amino)pyridin-2-yl)acetamide], the pIC50 at JH2 domain of human Tyk2 (setting [2]) and against Tyk2 (MSD) was not below 8.00 each time.

For `CCS(=O)(=O)n1ccc(-c2cnc(NC(C)=O)cc2Nc2cc(C)nc(C(C)(F)F)n2)n1` [Example 542, N-(4-((2-(1,1-difluoroethyl)-6-methylpyrimidin-4-yl)amino)-5-(1-(ethylsulfonyl)-1H-pyrazol-3-yl)pyridin-2-yl)acetamide], the pIC50 on JH2 domain of human Tyk2 (setting [2]) and on Tyk2 (MSD) was not below 8.00 each time.

Take `COCc1ccc(-c2cnc(NC(C)=O)cc2Nc2cc(COC)nc(C3CCOC3)n2)nc1` (centres unmarked) [Example 570, N-(5-(methoxymethyl)-4′-((6-(methoxymethyl)-2-(tetrahydrofuran-3-yl)pyrimidin-4-yl)amino)-[2,3′-bipyridin]-6′-yl)acetamide]: the pIC50 was not below 8.00 at JH2 domain of human Tyk2 (setting [2]) and 7.00 to 8.00 against Tyk2 (MSD).

`CC(=O)Nc1cc(Nc2ccnc(C(C)(F)F)n2)c(-c2ncccn2)cn1` [Example 685, N-(4-((2-(1,1-difluoroethyl)pyrimidin-4-yl)amino)-5-(pyrimidin-2-yl)pyridin-2-yl)acetamide]: the pIC50 at JH2 domain of human Tyk2 (setting [2]) is not below 8.00; at Tyk2 (MSD), 7.00 to 8.00.

As to `CCOc1cnc(NC(C)=O)cc1Nc1cc(C)nc(C2CC2(C)C)n1` (racemic) [Example 518, rac-(R)-N-(4-((2-(2,2-dimethylcyclopropyl)-6-methylpyrimidin-4-yl)amino)-5-ethoxypyridin-2-yl)acetamide], the figures for the pIC50 on JH2 domain of human Tyk2 (setting [2]) and at Tyk2 (MSD) were not below 8.00 and 6.00 to 7.00, respectively.

As to `CC(=O)Nc1cc(Nc2cc(C)nc(C(C)(F)F)n2)c(OCC2CC3(CCC3)CO2)cn1` (centres unmarked) [Example 433, N-(5-((6-oxaspiro[3.4]octan-7-yl)methoxy)-4-((2-(1,1-difluoroethyl)-6-methylpyrimidin-4-yl)amino)pyridin-2-yl)acetamide], the pIC50 on JH2 domain of human Tyk2 (setting [2]) and at Tyk2 (MSD) was not below 8.00 in each case.

Regarding `CCc1cc(Nc2cc(NC(C)=O)ncc2-c2cn(CCOC)nn2)nc(C(C)(F)F)n1` [Example 262, N-(4-((2-(1,1-difluoroethyl)-6-ethylpyrimidin-4-yl)amino)-5-(1-(2-methoxyethyl)-1H-1,2,3-triazol-4-yl)pyridin-2-yl)acetamide], the pIC50 at JH2 domain of human Tyk2 (setting [1]) and against Tyk2 (MSD) was not below 8.00 in each case.

For the molecule `CCc1noc(COc2cnc(NC(C)=O)cc2Nc2cc(C)nc(C(C)(F)F)n2)n1` [Example 331, N-(4-((2-(1,1-difluoroethyl)-6-methylpyrimidin-4-yl)amino)-5-((3-ethyl-1,2,4-oxadiazol-5-yl)methoxy)pyridin-2-yl)acetamide], the pIC50 at JH2 domain of human Tyk2 (setting [1]) was 7.00 to 8.00; against Tyk2 (MSD), 6.00 to 7.00.

With `CC(=O)Nc1cc(Nc2ccnc(C(C)(F)F)n2)c(-c2ccc(CN3C[C@@H]4C[C@H]3CO4)cn2)cn1` [Example 885, N-(5-(((1S,4S)-2-oxa-5-azabicyclo[2.2.1]heptan-5-yl)methyl)-4′-((2-(1,1-difluoroethyl)pyrimidin-4-yl)amino)-[2,3′-bipyridin]-6′-yl)acetamide], the pIC50 on JH2 domain of human Tyk2 (setting [3]) and on Tyk2 was not below 8.00 throughout.

As to `CCc1cc(Nc2cc(NC(C)=O)ncc2-c2ccc(COC)cn2)nc(C2CCOC2)n1` (centres unmarked) [Example 569, N-(4′-((6-ethyl-2-(tetrahydrofuran-3-yl)pyrimidin-4-yl)amino)-5-(methoxymethyl)-[2,3′-bipyridin]-6′-yl)acetamide], the pIC50 at JH2 domain of human Tyk2 (setting [2]) and on Tyk2 (MSD) was not below 8.00 in each case.

Turning to `COCCOc1cnc(NC(C)=O)cc1Nc1cccc(C2CCOC2)n1` (centres unmarked) [Example 72, N-(5-(2-methoxyethoxy)-4-((6-(tetrahydrofuran-3-yl)pyridin-2-yl)amino)pyridin-2-yl)acetamide], the pIC50 was not below 8.00 on JH2 domain of human Tyk2 (setting [1]) and 6.00 to 7.00 at Tyk2 (MSD).
